Consider 17 compounds from ChEMBL document CHEMBL5113431, “Synthesis and initial in vitro evaluation of PSMA-targeting ligands with a modified aromatic moiety at the lysine ε-nitrogen atom” (Bioorg Med Chem Lett, 2022).

Data set [1] concerns the target Glutamate carboxypeptidase 2 (Homo sapiens, UniProt Q04609). Put plainly: Inhibition of PSMA in human LNCaP cell extracts using NAAG as substrate by amplex red reagent based assay. It counts as cell-free.
Data set [2] is described as follows: Drug uptake in PSMA overexpressing human LNCaP cells at 4 to 40 nM by flow cytometry. As to conditions: 0.04 µM, dose 4-40 nM; call rule not given here. It counts as ADME, cell-based. In general terms: A flow cytometer gives signals particle by particle.

Glutamate carboxypeptidase 2, sequence (Q04609 whole entry): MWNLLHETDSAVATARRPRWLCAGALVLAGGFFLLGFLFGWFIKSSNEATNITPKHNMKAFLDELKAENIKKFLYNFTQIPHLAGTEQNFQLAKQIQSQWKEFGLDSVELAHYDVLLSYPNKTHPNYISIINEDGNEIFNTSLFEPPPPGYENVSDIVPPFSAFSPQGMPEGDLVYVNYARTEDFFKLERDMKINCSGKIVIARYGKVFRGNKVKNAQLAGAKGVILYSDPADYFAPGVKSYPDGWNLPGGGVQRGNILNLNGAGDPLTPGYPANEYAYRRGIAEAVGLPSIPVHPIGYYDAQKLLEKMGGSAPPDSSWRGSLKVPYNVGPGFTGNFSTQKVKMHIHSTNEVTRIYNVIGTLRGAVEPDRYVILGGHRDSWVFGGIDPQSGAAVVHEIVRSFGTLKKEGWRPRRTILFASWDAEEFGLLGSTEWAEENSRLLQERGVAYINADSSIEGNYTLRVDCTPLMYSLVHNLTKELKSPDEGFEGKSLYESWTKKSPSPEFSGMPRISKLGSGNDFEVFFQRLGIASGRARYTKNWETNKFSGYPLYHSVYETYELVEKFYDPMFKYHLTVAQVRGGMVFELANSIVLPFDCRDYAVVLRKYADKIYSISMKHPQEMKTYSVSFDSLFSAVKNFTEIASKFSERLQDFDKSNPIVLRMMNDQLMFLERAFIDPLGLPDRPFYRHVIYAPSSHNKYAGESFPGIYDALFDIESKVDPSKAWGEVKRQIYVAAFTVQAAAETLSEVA

`[N-]=[N+]=NCCCNC(=O)[C@H](Cc1ccccc1)NC(=O)[C@H](Cc1ccccc1)NC(=O)CCC(=O)NCCCCCC(=O)N(CCCC[C@H](NC(=O)N[C@@H](CCC(=O)O)C(=O)O)C(=O)O)Cc1cccc([N+](=O)[O-])c1`: in data set [1], the IC50 (usually the concentration that inhibits the measured activity by half) came out at 23 nM.
The same measure, in the same setting: the same measure for `CCOc1ccc(CN(CCCC[C@H](NC(=O)N[C@@H](CCC(=O)O)C(=O)O)C(=O)O)C(=O)CCCCCNC(=O)CCC(=O)N[C@@H](Cc2ccccc2)C(=O)N[C@@H](Cc2ccccc2)C(=O)NCCCN=[N+]=[N-])cc1`: 51 nM.
Same read-out and setting: the same measure for `[N-]=[N+]=NCCCNC(=O)[C@H](Cc1ccccc1)NC(=O)[C@H](Cc1ccccc1)NC(=O)CCC(=O)NCCCCCC(=O)N(CCCC[C@H](NC(=O)N[C@@H](CCC(=O)O)C(=O)O)C(=O)O)Cc1ccccc1[N+](=O)[O-]`: 16 nM; for `[N-]=[N+]=NCCCNC(=O)[C@H](Cc1ccccc1)NC(=O)[C@H](Cc1ccccc1)NC(=O)CCC(=O)NCCCCCC(=O)N(CCCC[C@H](NC(=O)N[C@@H](CCC(=O)O)C(=O)O)C(=O)O)Cc1ccc([N+](=O)[O-])cc1`: 35 nM.
In turn, `[N-]=[N+]=NCCCNC(=O)[C@H](Cc1ccccc1)NC(=O)[C@H](Cc1ccccc1)NC(=O)CCC(=O)NCCCCCC(=O)N(CCCC[C@H](NC(=O)N[C@@H](CCC(=O)O)C(=O)O)C(=O)O)Cc1ccc(O)cc1` yielded an IC50 in data set [1] of 24 nM.
For `CN1/C(=C/C=C/C=C/C2=[N+](CCCCCC(=O)NCc3cn(CCCNC(=O)[C@H](Cc4ccc(O)cc4)NC(=O)[C@H](Cc4ccccc4)NC(=O)CCC(=O)NCCCCCC(=O)N(CCCC[C@H](NC(=O)N[C@@H](CCC(=O)O)C(=O)O)C(=O)O)Cc4cccc(Cl)c4)nn3)c3ccc(S(=O)(=O)[O-])cc3C2(C)C)C(C)(C)c2cc(S(=O)(=O)O)ccc21`, the Drug uptake entry in data set [2] is recorded as “Active”.
As for `COc1ccc(CN(CCCC[C@H](NC(=O)N[C@@H](CCC(=O)O)C(=O)O)C(=O)O)C(=O)CCCCCNC(=O)CCC(=O)N[C@@H](Cc2ccccc2)C(=O)N[C@@H](Cc2ccccc2)C(=O)NCCCN=[N+]=[N-])c(OC)c1`, in data set [1], the IC50 is 23 nM.
Same read-out and setting: the same measure for `[N-]=[N+]=NCCCNC(=O)[C@H](Cc1ccc(O)cc1)NC(=O)[C@H](Cc1ccccc1)NC(=O)CCC(=O)NCCCCCC(=O)N(CCCC[C@H](NC(=O)N[C@@H](CCC(=O)O)C(=O)O)C(=O)O)Cc1ccccc1[N+](=O)[O-]`: 101 nM; for `[N-]=[N+]=NCCCNC(=O)[C@H](Cc1ccc(O)c([N+](=O)[O-])c1)NC(=O)[C@H](Cc1ccccc1)NC(=O)CCC(=O)NCCCCCC(=O)N(CCCC[C@H](NC(=O)N[C@@H](CCC(=O)O)C(=O)O)C(=O)O)Cc1ccc(C(=O)O)cc1`: 2.1 nM; for `COc1ccccc1CN(CCCC[C@H](NC(=O)N[C@@H](CCC(=O)O)C(=O)O)C(=O)O)C(=O)CCCCCNC(=O)CCC(=O)N[C@@H](Cc1ccccc1)C(=O)N[C@@H](Cc1ccccc1)C(=O)NCCCN=[N+]=[N-]`: 38 nM.
With `CN1/C(=C/C=C/C=C/C2=[N+](CCCCCC(=O)NCc3cn(CCCNC(=O)[C@H](Cc4ccccc4)NC(=O)[C@H](Cc4ccccc4)NC(=O)CCC(=O)NCCCCCC(=O)N(CCCC[C@H](NC(=O)N[C@@H](CCC(=O)O)C(=O)O)C(=O)O)Cc4ccccc4[N+](=O)[O-])nn3)c3ccc(S(=O)(=O)[O-])cc3C2(C)C)C(C)(C)c2cc(S(=O)(=O)O)ccc21`, the Drug uptake result in data set [2] is “Active”.
On to `COc1ccc(CN(CCCC[C@H](NC(=O)N[C@@H](CCC(=O)O)C(=O)O)C(=O)O)C(=O)CCCCCNC(=O)CCC(=O)N[C@@H](Cc2ccccc2)C(=O)N[C@@H](Cc2ccccc2)C(=O)NCCCN=[N+]=[N-])cc1`, for which the IC50 in data set [1] was found to be 112 nM.
`CN1/C(=C/C=C/C=C/C2=[N+](CCCCCC(=O)NCc3cn(CCCNC(=O)[C@H](Cc4ccccc4)NC(=O)[C@H](Cc4ccccc4)NC(=O)CCC(=O)NCCCCCC(=O)N(CCCC[C@H](NC(=O)N[C@@H](CCC(=O)O)C(=O)O)C(=O)O)Cc4ccc(C(=O)O)cc4)nn3)c3ccc(S(=O)(=O)[O-])cc3C2(C)C)C(C)(C)c2cc(S(=O)(=O)O)ccc21`: in data set [2], the Drug uptake result is “Active”.
For the compound `[N-]=[N+]=NCCCNC(=O)[C@H](Cc1ccccc1)NC(=O)[C@H](Cc1ccccc1)NC(=O)CCC(=O)NCCCCCC(=O)N(CCCC[C@H](NC(=O)N[C@@H](CCC(=O)O)C(=O)O)C(=O)O)Cc1ccc(C(=O)O)cc1`, the half-maximal inhibitory concentration (IC50) in data set [1] was found to be 7 nM.
Same read-out and setting: the same measure for `[N-]=[N+]=NCCCNC(=O)[C@H](Cc1ccc(O)cc1)NC(=O)[C@H](Cc1ccccc1)NC(=O)CCC(=O)NCCCCCC(=O)N(CCCC[C@H](NC(=O)N[C@@H](CCC(=O)O)C(=O)O)C(=O)O)Cc1ccc(C(=O)O)cc1`: 19 nM.
The same measure, in the same setting: the same measure for `[N-]=[N+]=NCCCNC(=O)[C@H](Cc1ccc(O)c([N+](=O)[O-])c1)NC(=O)[C@H](Cc1ccccc1)NC(=O)CCC(=O)NCCCCCC(=O)N(CCCC[C@H](NC(=O)N[C@@H](CCC(=O)O)C(=O)O)C(=O)O)Cc1cccc(Cl)c1`: 1.5 nM; for `COc1ccc(CN(CCCC[C@H](NC(=O)N[C@@H](CCC(=O)O)C(=O)O)C(=O)O)C(=O)CCCCCNC(=O)CCC(=O)N[C@@H](Cc2ccccc2)C(=O)N[C@@H](Cc2ccccc2)C(=O)NCCCN=[N+]=[N-])cc1OC`: 88 nM.
